Test results: PMC12568586, “Mass spectrometry-guided discovery of novel GCPII inhibitor scaffolds” (Frontiers in Pharmacology, 2025)
Values joined by “and” are separate entries in the source; they are usually repeats but may differ in a detail not shown here. Identical values can stand only once. Like-named read-outs stand apart in the source and are kept apart here.

Assays:
[1] = molecular target: T1, recombinant human (rh) GCPII (Homo sapiens, UniProt Q04609); experiment: nanoDSF thermal shift assay; assay type: binding; settings: for Tm of GCPII in the presence of compound: compound at 250 μM, DMSO Tm 78.93 °C; for shift in Tm (Δ): compound at 25 μM, vs DMSO
T1 construct: purchased Sino Biological
T1 sequence (Q04609 whole entry): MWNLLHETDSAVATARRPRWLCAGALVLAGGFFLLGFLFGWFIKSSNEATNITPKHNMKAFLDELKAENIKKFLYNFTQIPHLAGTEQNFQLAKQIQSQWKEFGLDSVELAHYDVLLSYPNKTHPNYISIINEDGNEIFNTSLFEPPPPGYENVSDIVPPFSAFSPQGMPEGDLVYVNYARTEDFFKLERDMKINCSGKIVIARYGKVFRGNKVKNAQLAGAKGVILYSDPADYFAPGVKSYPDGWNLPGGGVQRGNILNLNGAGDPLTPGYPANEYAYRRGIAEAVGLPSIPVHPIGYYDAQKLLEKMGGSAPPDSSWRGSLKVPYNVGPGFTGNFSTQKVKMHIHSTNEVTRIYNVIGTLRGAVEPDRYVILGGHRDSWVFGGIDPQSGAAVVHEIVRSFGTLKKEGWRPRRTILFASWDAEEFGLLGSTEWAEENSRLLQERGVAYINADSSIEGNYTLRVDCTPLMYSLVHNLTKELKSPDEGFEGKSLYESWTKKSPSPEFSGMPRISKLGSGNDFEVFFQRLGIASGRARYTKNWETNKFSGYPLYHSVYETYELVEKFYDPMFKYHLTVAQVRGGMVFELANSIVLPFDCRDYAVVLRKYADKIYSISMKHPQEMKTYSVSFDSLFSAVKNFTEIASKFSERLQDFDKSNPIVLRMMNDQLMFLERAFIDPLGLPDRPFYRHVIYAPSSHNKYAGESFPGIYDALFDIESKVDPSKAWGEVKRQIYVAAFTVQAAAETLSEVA
Description: nanoDSF experiments were performed to assess the thermal stability of GCPII in the presence of various inhibitors. Protein samples were prepared at a concentration of 0.15 mg/mL in 50 mM Tris-HCl (pH 7.4), 1 mM CoCl2, 150 mM NaCl, and 0.01% Tween-20. Samples were incubated at 25 °C for 30 min prior to measurement with shaking at 1,000 rpm. Thermal unfolding was monitored using a Prometheus Panta nanoDSF instrument using standard capillaries (NanoTemper Technologies). The intrinsic fluorescence at 350 nm and 330 nm was recorded as a function of temperature, and the fluorescence ratio (350/330 nm) and its first derivative were used to track protein unfolding. A thermal gradient from 25 °C to 95 °C was applied at a rate of 0.5 °C per minute. The melting temperature (Tm) was determined from the global maximum of the first derivative of the fluorescence ratio curve. Each condition was tested in at least three independent replicates, and data was analyzed using PR. ThermControl software (NanoTemper Technologies). One-way ANOVA with multiple comparisons to the DMSO vehicle control group was used to determine significant shifts from the control thermal unfolding profile.

[2] = test system: GCPII; settings: prior art compound, value given when selected for assay validation; no reference given; cited from earlier work
[3] = molecular target: T2, GCPII (Homo sapiens, UniProt Q04609); experiment: dual-stream LC/MS/MS GCPII substrate cleavage (inhibition) assay; assay type: biochemical; set-up: purchased Sino Biological; settings: for Max resp (100uM) / HTS max resp: in % (unit assumed); for inhibition at 10 µM: read-out: inhibition relative to the DMSO and no enzyme controls; for IC50: follow up screening, triplicate IC50 values ± standard deviation, read-out: IC50 (mass spec assay)
T2 sequence (Q04609 whole entry): as above
Description: The novel high-throughput dual-stream liquid chromatography–tandem mass spectrometry method used to screen for this study was recently published ([Hoxie et al., 2024]). Briefly, a 5 μL solution containing recombinant GCPII (SinoBio) in Tris–HCl (pH 7.4) with 1 mM CoCl2 was dispensed using a BioRAPTR 2.0 Flying Reagent Dispenser (Let’s Go Robotics) into 384-well assay plates (Greiner 784,201) pre-spotted with 100 nL of compound in DMSO using an Echo 655 Acoustic Liquid Handler (Beckman). Enzyme and compound were incubated for 15 min prior to the addition of 5 μL of ^13C5 ^15N-acetylaspartylglutamate (Aldrich). After 30 min s at room temperature, reactions were quenched using 0.2 μM D3-glutamate in LC/MS-grade acetonitrile and 0.1% formic acid. A 2-min liquid chromatography method utilizing a 2.1 × 30 mm BEH Amide HILIC column (Waters) was used to resolve glutamate from NAA and NAAG. A Sciex 6,500+ Q-Trap mass spectrometer was utilized for MS/MS quantification of released glutamate in the presence of compound. The integrated peak areas were normalized against the d3-glutamate internal standard, and then degree of inhibition was calculated using replicates containing no enzyme and enzyme with equivalent volumes of DMSO. Compounds were initially screened in a 10 μL reaction volume with 10 μM (final) compound dissolved in DMSO. […] To further increase throughput and the efficiency of screening, LC/MS analysis of libraries was conducted in dual-stream mode on an LS-1 autosampler (Sound Analytics).

[4] = molecular target: T3, human rGCPII (Homo sapiens, UniProt Q04609); experiment: orthogonal radioenzymatic GCPII inhibition assay (3H-NAAG); assay type: biochemical; settings: NAA[3H]G 30 nM, GCPII 40 pM, 37 °C, 25 min
T3 construct: purchased Sino Biological
T3 sequence (Q04609 whole entry): as above
Description: Radioenzymatic assay using ^3H-NAAG was performed as previously described ([Barinka et al., 2002]). Briefly, a 50 μL reaction mixture containing NAA [^3H]G (30 nM, 49 μCi/nmol) and GCPII (40 pM), in Tris-HCl (pH 7.4, 40 mM) with 1 mM CoCl2 was incubated at 37 °C for 25 min and stopped with 50 μL ice-cold sodium phosphate buffer (pH 7.5, 0.1 M). AG1X8 ion-exchange resin was used to separate cleaved [^3H]glutamate, and the flowthrough was transferred to solid scintillator-coated 96-well plates (Packard) and allowed to dry. Radioactivity was measured by a Topcount NXT from Packard. Each compound was run in duplicate, and 6–8-point dose-response curves were generated.

[5] = molecular target: T2, GCPII; experiment: mode of inhibition study (radioenzymatic assay, varied NAA[3H]G, Michaelis-Menten analysis); settings: for Ki: Ki (secondary plot Km app/Vmax vs [inhibitor], −X intercept), 40 pM GCPII; for mode of inhibition: NAAG as substrate
Description: The mode of inhibition was also determined as previously described following the same procedure as the radioenzymatic-based IC50 assay but with modification of the concentrations of NAA [^3H]G. ([Barinka et al., 2002]). […] A Michaelis-Menten kinetics analysis was done to determine the Km and Vmax at each inhibitor concentration.

[6] = pharmacokinetic and brain penetration study in mice; assay type: in vivo; settings: 100 mg/kg IP, C57BL/6 mice
Description: Pharmacokinetic studies in mice were approved by the Animal Care and Use Committee at Johns Hopkins University. Male C57BL/6 mice (25–30 g) were housed under a 12-h light-dark cycle with ad libitum access to food and water. Cefsulodin was administered intraperitoneally (IP) at a dosage of 100 mg/kg prepared freshly (5% DMSO and 95% HEPES saline v/v) with a dosing volume of 10 mL/kg. Blood and brain tissue samples were collected at 0.083–3 h post-administration (n = 3 per time point). Blood was obtained via cardiac puncture, and plasma was separated by low-speed centrifugation at 3,000 × g for 15 min and stored at −80 °C. Brain tissues were harvested, and immediately frozen in liquid nitrogen, and stored at −80 °C until analyses.
As cefsulodin is known to be unstable, plasma and brain tissue samples were prepared with the addition of 2% formic acid in water to adjust the pH to 5 ([Lecaillon et al., 1982]). For quantification of cefsulodin, plasma samples were diluted 10-fold with blank plasma, and a total of 40 μL of plasma was extracted using a protein precipitation method by adding methanol containing the internal standard (diclofenac, 1 μM). The mixture was vortex-mixed for 30 s and centrifuged at 14,000 rpm for 5 min at 4 °C. Brain tissues were homogenized in methanol at a 1:5 (w/v) ratio. A 50 μL aliquot of the homogenate was precipitated with methanol containing the internal standard, vortex-mixed, and centrifuged at 14,000 rpm for 5 min at 4 °C. A 150 μL aliquot of the supernatant was transferred to a polypropylene vial sealed with a Teflon cap and analyzed by liquid chromatography with tandem mass spectrometric methods (LC-MS/MS) as described below.
Cefsulodin concentrations in mouse plasma and brain were measured using a Shimadzu Nexera X2 LC-40D system (Shimadzu Corporation, Kyoto, Japan) coupled with an API 6500 triple quadrupole mass spectrometer (AB Sciex, Redwood City, CA, United States). […] Quantitation was performed in multiple reaction monitoring (MRM) mode using cefsulodin (533.03 > 123.03) and diclofenac as the internal standard (296.13 > 215.03) ([Zhou et al., 2024]; [Park et al., 2024]). Calibration curves were constructed over the range of 0.01–100 nmol/mL or nmol/g for plasma and brain, respectively.
Plasma concentrations (nmol/mL) and brain concentrations (nmol/g) were determined, and mean concentration-time profiles were plotted for pharmacokinetic analysis. Non-compartmental analysis was performed using the Phoenix WinNonlin software version 8.4 (Certara United States, Inc., Princeton, NJ) to calculate pharmacokinetic parameters, including the maximum concentration (Cmax), time to Cmax (Tmax), and area under the concentration-time curve (AUC0–t).

[7] = maximum response at 100uM, dose response
[8] = library screening, seven-point dose response, read-out: AC50

In the case of `O=C(O)CCC(CCCS)C(=O)O` (stereo not shown) [2-MPPA, 2-(3-mercaptopropyl)pentanedioic acid], the “Tm of GCPII in the presence of compound” value [1] is given as 79.25 °C, the IC50 [2] is given as 90 nM and the “Max resp (100uM)” value [3, 7] is given as −96.75. The HTS max resp ([3]; primary high-throughput screen) was −100.00 and the inhibition at 10 µM ([3]; single point screen at 10 µM) was no less than 50%.

For `O=C(O)CCC(CP(=O)(O)O)C(=O)O` (stereo not shown) [2-PMPA, 2-(phosphonomethyl)pentanedioic acid], the “Tm of GCPII in the presence of compound” value [1] is listed as 90.70 °C, the IC50 [2] is listed as […] and the “Max resp (100uM)” value [3, 7] is listed as −98.19. The HTS max resp ([3]; primary high-throughput screen) was −100.00 and the inhibition at 10 µM ([3]; single point screen at 10 µM) was no less than 50%.

For `O=S(=O)(O)c1ccc2c(/N=N/c3ccc(S(=O)(=O)O)c4ccccc34)c(O)c(S(=O)(=O)O)cc2c1` [Amaranth], the “shift in Tm (Δ)” value [1] was 0.76 °C, the IC50 [4] was 300 ± 10 nM and the IC50 [3] was 1500 ± 300 nM. The AC50 [3, 8] was 2500 nM, the “Max resp (100uM)” value [3, 7] was −101.68 and the HTS max resp ([3]; primary high-throughput screen) was −101.93. For the same molecule, the Ki [5] was 1100 ± 60 nM and the mode of inhibition [5] was “non-competitive inhibition”.

In the case of `O=C(O)C1=C(CSc2nnnn2CS(=O)(=O)O)CS[C@@H]2[C@H](NC(=O)[C@H](O)c3ccccc3)C(=O)N12` [Cefonicid sodium], the IC50 [4] is reported as 4900 ± 2000 nM and the IC50 [3] is reported as 32000 ± 2000 nM.

Work on `NCc1ccccc1CC(=O)N[C@@H]1C(=O)N2C(C(=O)O)=C(CSc3nnnn3CC(=O)O)CS[C@H]12` [Ceforanide] yielded an IC50 [4] of 14000 ± 6000 nM and an IC50 [3] of 29000 ± 400 nM.

`CO[C@@]1(NC(=O)C2SC(=C(C(N)=O)C(=O)O)S2)C(=O)N2C(C(=O)O)=C(CSc3nnnn3C)CS[C@@H]21` (stereo partly shown) [Cefotetan] gave an IC50 [4] of 2000 ± 1000 nM and an IC50 [3] of 9700 ± 3000 nM.

For `NC(=O)c1cc[n+](CC2=C(C(=O)O)N3C(=O)[C@@H](NC(=O)[C@@H](c4ccccc4)S(=O)(=O)[O-])[C@H]3SC2)cc1` [Cefsulodin], the brain penetration index [6] was “low”, the “brain Cmax” value ([6]; brain) was 4 µM and 4.9 µM and the “brain exposure (AUC)” value ([6]; brain) was 4.36 ± 1.12 nmol·h/g. The “time of brain Cmax” value ([6]; brain, post-dose) was 30 min, the “shift in Tm (Δ)” value [1] was 0.65 (±0.07) °C and the IC50 [4] was 2000 ± 100 nM. For the same molecule, the IC50 [3] was 3600 ± 300 nM, the AC50 [3, 8] was 3900 nM and the “Max resp (100uM)” value [3, 7] was −98.19. The HTS max resp ([3]; primary high-throughput screen) was −92.18, the Ki [5] was 2500 nM and 2000 nM and the mode of inhibition [5] was “competitive, active-site inhibition”.

For `Nc1nc(=O)c2nc(CNc3ccc(C(=O)N[C@@H](CCC(=O)O)C(=O)O)cc3)cnc2[nH]1` [Folic Acid], the inhibition at 10 µM ([3]; single point screen at 10 µM) was no less than 50%.

`CC1(C)C(/C=C/C=C/C=C/C=C2\N(CCCCS(=O)(=O)O)c3ccc4ccccc4c3C2(C)C)=[N+](CCCCS(=O)(=O)[O-])c2ccc3ccccc3c21` [Indocyanine green] gave an IC50 [4] of 1900 ± 300 nM and an IC50 [3] of 11000 ± 200 nM.

In the case of `N[C@@H](Cn1oc(=O)[nH]c1=O)C(=O)O` [L-Quisqualic acid], the IC50 [2] is listed as 10000 nM, the AC50 [3] is listed as 7900 nM and the HTS max resp [3] is listed as −93.07. The “Max resp (100uM)” value [3] was −91.35 and the inhibition at 10 µM [3] was no less than 50%.

`CN(Cc1cnc2nc(N)nc(N)c2n1)c1ccc(C(=O)N[C@@H](CCC(=O)O)C(=O)O)cc1` [Methotrexate] gave an inhibition at 10 µM ([3]; single point screen at 10 µM) of no less than 50%.

In the case of `O=C1OC(c2ccc(O)c(S(=O)(=O)O)c2)(c2ccc(O)c(S(=O)(=O)O)c2)c2c(Br)c(Br)c(Br)c(Br)c21` [Sulfobromophthalein], the IC50 [4] is reported as 230 ± 100 nM and the IC50 [3] is reported as 400 ± 100 nM.

`Cc1cc(-c2ccc(/N=N/c3c(S(=O)(=O)O)cc4cc(S(=O)(=O)O)cc(N)c4c3O)c(C)c2)ccc1/N=N/c1c(S(=O)(=O)O)cc2cc(S(=O)(=O)O)cc(N)c2c1O` [Trypan blue] showed an IC50 [4] of 210 ± 50 nM and an IC50 [3] of 2100 ± 400 nM.
